According to patent US11236120B2, “Azithromycin derivatives with epithelial barrier enhancement properties” (EpiEndo Pharmaceuticals ehf, priority 2015, dated 2022):
Values after ≈ are worked out from the molar mass of the structure shown.

Experiments:
[1] = Solubility in 10 mM phosphate buffer (pH 7.4); assay type: physicochemical; conditions: pH 7.4, aqueous buffer, kinetic from dmso stock, 60 minutes at room temperature, filtered, read-out: MTS Solubility in Buffer (pH 7.4)
Procedure: Solubility in 10 mM Phosphate Buffer (pH 7.4)
The solubility sample testing of the compounds was performed by in phosphate buffer at pH 7.4 and using HPLC-MS detection. A stock solution of […] in DMSO was prepared for each compound. For the solubility test sample, 100 μL of the stock solution was diluted with 3.9 mL of a 10 mM phosphate buffer at […] to a final concentration of […]. The buffer solution was left to stand for 60 minutes at room temperature and then filtered. The filtrate was analyzed against two calibration points of the same analyte prepared at […] using HPLC-MS. These calibration points were prepared from the same stock solution as the solubility sample by diluting it with DMSO:H2O (1:1) 1:40 and then again 1:10. The chromatographic signal area of the analyte in the solubility sample was then compared to the chromatographic signal area of the two calibration samples.
(§1) The chromatographic separation was performed on a Waters HPLC-MS system using a 50×2.1 mm×Bridge C18 column and a gradient elution of Water with 0.1% formic acid and acetonitrile with 0.1% formic acid. The analytes were analyzed in positive electro-spray mode using the (M+H)^+ in single ion recording.

[2] = Stability in human plasma; assay type: in vitro ADME; conditions: room temperature
Procedure: (§2) Stability in Mouse and Human Plasma
(§3) The stability of the compounds in mouse and human plasma was performed using protein precipitation as sample clean-up and HPLC-MS detection. The plasma stability studies of the compounds was performed at room temperature for up to 4 hours. A stock solution of […] in DMSO was prepared for each compound. For the plasma stability samples, 100 μL of the stock solution was diluted with 3.9 mL of either mouse or human plasma to a final concentration of […]. The plasma was left to equilibrate for 10 minutes at room temperature before the first analysis. For each analyzed time point ([…]) a 100 μL aliquot of the plasma was removed and protein precipitation (PPT) was performed on the aliquot by adding 900 μL of (ACN:DMSO) 95:5. The precipitated sample was shaken for 60 seconds and then centrifuged. The supernatant was transferred to an HPLC vial and analyzed using HPLC-MS. The chromatographic signal area of the samples at the different time points were then compared against each other, by setting the initial analysis at t=0 min as 100% and then calculating the %-value for each subsequent time point.
as §1

[3] = Stability in mouse plasma; assay type: in vitro ADME; conditions: room temperature
Procedure: as §2, §3, §1

Compound | solubility at 60 min [1] [µM] | Degradation in Human Plasma at RT [2] | Degradation in Mouse Plasma at RT [3]
CC[C@H]1OC(=O)[C@H](C)[C@@H](O)[C@H](C)[C@@H](O[C@@H]2O[C@H](C)C[C@H](N(C)C(=O)c3ccccc3)[C@H]2O)[C@](C)(O)C[C@@H](C)CN(C)[C@H](C)[C@@H](O)[C@]1(C)O [Example 7, N-[(2S,3R,4S,6R)-2-[[(2R,3S,4R,5R,8R,10R,11R,12S,13S,14R)-2-ethyl-3,4,10,13-tetrahydroxy-3,5,6,8,10,12,14-heptamethyl-15-oxo-1-oxa-6-azacyclopentadec-11-yl]oxy]-3-hydroxy-6-methyl-tetrahydropyran-4-yl]-N-methyl-benzamide] | 0.23 (≈ 0.157 µg/mL) | Stable | –
CC[C@H]1OC(=O)[C@H](C)[C@@H](O)[C@H](C)[C@@H](O[C@@H]2O[C@H](C)C[C@H](N(C)C)[C@H]2OC(=O)c2ccc(-c3ccc(S(C)(=O)=O)cc3)cc2)[C@](C)(O)C[C@@H](C)CN(C)[C@H](C)[C@@H](O)[C@]1(C)O [Example 12, [(2S,3R,4S,6R)-4-(dimethylamino)-2-[[(2R,3S,4R,5R,8R,10R,11R,12S,13S,14R)-2-ethyl-3,4,10,13-tetrahydroxy-3,5,6,8,10,12,14-heptamethyl-15-oxo-1-oxa-6-azacyclopentadec-11-yl]oxy]-6-methyl-tetrahydropyran-3-yl]4-(4-methylsulfonylphenyl) benzoate] | 0.3 (≈ 0.255 µg/mL) | 2 % per hour | 2 % per hour
CC[C@H]1OC(=O)[C@H](C)[C@@H](O)[C@H](C)[C@@H](O[C@@H]2O[C@H](C)C[C@H](N(C)C)[C@H]2OC(=O)CCC(=O)O)[C@](C)(O)C[C@@H](C)CN(C)[C@H](C)[C@@H](O)[C@]1(C)O [Example 17, 4-[(2S,3R,4S,6R)-4-(dimethylamino)-2-[[(2R,3S,4R,5R,8R,10R,11R,12S,13S,14R)-2-ethyl-3,4,10,13-tetrahydroxy-3,5,6,8,10,12,14-heptamethyl-15-oxo-1-oxa-6-azacyclopentadec-11-yl]oxy]-6-methyl-tetrahydropyran-3-yl]oxy-4-oxo-butanoic acid] | 0.66 (≈ 0.456 µg/mL) | 20 % per hour | ca. 20% per hour
CC[C@H]1OC(=O)[C@H](C)[C@@H](O)[C@H](C)[C@@H](O[C@@H]2O[C@H](C)C[C@H](N(C)C(=O)CCC(=O)O)[C@H]2O)[C@](C)(O)C[C@@H](C)CN(C)[C@H](C)[C@@H](O)[C@]1(C)O [Example 18, 4-[[(2S,3R,4S,6R)-2-[[(2R,3S,4R,5R,8R,10R,11R,12S,13S,14R)-2-ethyl-3,4,10,13-tetrahydroxy-3,5,6,8,10,12,14-heptamethyl-15-oxo-1-oxa-6-azacyclopentadec-11-yl]oxy]-3-hydroxy-6-methyl-tetrahydropyran-4-yl]-methyl-amino]-4-oxo-butanoic acid] | 0.4 (≈ 0.271 µg/mL) | Stable | –
CCc1ccc(C(=O)O[C@H]2[C@H](O[C@@H]3[C@@H](C)[C@H](O)[C@@H](C)C(=O)O[C@H](CC)[C@@](C)(O)[C@H](O)[C@@H](C)N(C)C[C@H](C)C[C@@]3(C)O)O[C@H](C)C[C@@H]2N(C)C)cc1 [Example 22, [(2S,3R,4S,6R)-4-(dimethylamino)-2-[[(2R,3S,4R,5R,8R,10R,11R,12S,13S,14R)-2-ethyl-3,4,10,13-tetrahydroxy-3,5,6,8,10,12,14-heptamethyl-15-oxo-1-oxa-6-azacyclopentadec-11-yl]oxy]-6-methyl-tetrahydropyran-3-yl]4-ethylbenzoate] | 1.43 (≈ 1.03 µg/mL) | Stable | Stable

More lines, now with the values ahead:

solubility at 60 min [1] [µM] | Degradation in Human Plasma at RT [2] | Degradation in Mouse Plasma at RT [3] | Compound
2.4 (≈ 1.79 µg/mL) | Stable | Stable | CC[C@H]1OC(=O)[C@H](C)[C@@H](O)[C@H](C)[C@@H](O[C@@H]2O[C@H](C)C[C@H](N(C)C)[C@H]2OC(=O)c2ccc3ccccc3c2)[C@](C)(O)C[C@@H](C)CN(C)[C@H](C)[C@@H](O)[C@]1(C)O [Example 24, [(2S,3R,4S,6R)-4-(dimethylamino)-2-[[(2R,3S,4R,5R,8R,10R,11R,12S,13S,14R)-2-ethyl-3,4,10,13-tetrahydroxy-3,5,6,8,10,12,14-heptamethyl-15-oxo-1-oxa-6-azacyclopentadec-11-yl]oxy]-6-methyl-tetrahydropyran-3-yl]naphthalene-2-carboxylate]
0.3 (≈ 0.217 µg/mL) | Stable | 4 % per hour | CC[C@H]1OC(=O)[C@H](C)[C@@H](O)[C@H](C)[C@@H](O[C@@H]2O[C@H](C)C[C@H](N(C)C(=O)COCc3ccccc3)[C@H]2O)[C@](C)(O)C[C@@H](C)CN(C)[C@H](C)[C@@H](O)[C@]1(C)O [Example 26, 2-benzyloxy-N-[(2S,3R,4S,6R)-2-[[(2R,3S,4R,5R,8R,10R,11R,12S,13S,14R)-2-ethyl-3,4,10,13-tetrahydroxy-3,5,6,8,10,12,14-heptamethyl-15-oxo-1-oxa-6-azacyclopentadec-11-yl]oxy]-3-hydroxy-6-methyl-tetrahydropyran-4-yl]-N-methyl-acetamide]
0.3 (≈ 0.23 µg/mL) | Stable | 3 % per hour | CC[C@H]1OC(=O)[C@H](C)[C@@H](O)[C@H](C)[C@@H](O[C@@H]2O[C@H](C)C[C@H](N(C)C(=O)CNC(=O)OCc3ccccc3)[C@H]2O)[C@](C)(O)C[C@@H](C)CN(C)[C@H](C)[C@@H](O)[C@]1(C)O [Example 27, Benzyl N-[2-[[(2S,3R,4S,6R)-2-[[(2R,3S,4R,5R,8R,10R,11R,12S,13S,14R)-2-ethyl-3,4,10,13-tetrahydroxy-3,5,6,8,10,12,14-heptamethyl-15-oxo-1-oxa-6-azacyclopentadec-11-yl]oxy]-3-hydroxy-6-methyl-tetrahydropyran-4-yl]-methyl-amino]-2-oxo-ethyl]carbamate]
1.42 (≈ 1.03 µg/mL) | Stable | Stable | CC[C@H]1OC(=O)[C@H](C)[C@@H](O)[C@H](C)[C@@H](O[C@@H]2O[C@H](C)C[C@H](N(C)C(=O)CCOc3ccccc3)[C@H]2O)[C@](C)(O)C[C@@H](C)CN(C)[C@H](C)[C@@H](O)[C@]1(C)O [Example 28, N-[(2S,3R,4S,6R)-2-[[(2R,3S,4R,5R,8R,10R,11R,12S,13S,14R)-2-ethyl-3,4,10,13-tetrahydroxy-3,5,6,8,10,12,14-heptamethyl-15-oxo-1-oxa-6-azacyclopentadec-11-yl]oxy]-3-hydroxy-6-methyl-tetrahydropyran-4-yl]-N-methyl-3-phenoxy-propanamide]
0.77 (≈ 0.535 µg/mL) | 2 % per hour | Stable | CC[C@H]1OC(=O)[C@H](C)[C@@H](O)[C@H](C)[C@@H](O[C@@H]2O[C@H](C)C[C@H](N(C)C(=O)Cc3ccccc3)[C@H]2O)[C@](C)(O)C[C@@H](C)CN(C)[C@H](C)[C@@H](O)[C@]1(C)O [Example 29, N-[(2S,3R,4S,6R)-2-[[(2R,3S,4R,5R,8R,10R,11R,12S,13S,14R)-2-ethyl-3,4,10,13-tetrahydroxy-3,5,6,8,10,12,14-heptamethyl-15-oxo-1-oxa-6-azacyclopentadec-11-yl]oxy]-3-hydroxy-6-methyl-tetrahydropyran-4-yl]-N-methyl-2-phenyl-acetamide]
0.49 (≈ 0.283 µg/mL) | Stable | Stable | CC[C@H]1OC(=O)[C@H](C)[C@@H](O)[C@H](C)[C@@H](O[C@@H]2O[C@H](C)C[C@H](NC)[C@H]2O)[C@](C)(O)C[C@@H](C)CN(C)[C@H](C)[C@@H](O)[C@]1(C)O [Example 30, (2R,3S,4R,5R,8R,10R,11R,12S,13S,14R)-2-ethyl-3,4,10,13-tetrahydroxy-11-[(2S,3R,4S,6R)-3-hydroxy-6-methyl-4-(methylamino)tetrahydropyran-2-yl]oxy-3,5,6,8,10,12,14-heptamethyl-1-oxa-6-azacyclopentadecan-15-one]
